Test results: PubChem BioAssay (NCI)
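Where inhibition never reached the appropriate level, the endpoint shown equals the highest concentration tested. Otherwise, values were interpolated linearly from a five-concentration, 48-hour dose response in 96-well plates. At the TGI there is no net growth.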

Legend:
Test in all cases: inhibition of tumour cell growth, NCI panel, 48 h
786-0 renal = tested on: 786-0 renal
A549 NSCLC = tested on: A549 NSCLC
ACHN renal = tested on: ACHN renal
CAKI-1 renal = tested on: CAKI-1 renal
COLO 205 colon = tested on: COLO 205 colon
DLD-1 colon = tested on: DLD-1 colon
DMS 114 small cell lung = tested on: DMS 114 small cell lung
DMS 273 small cell lung = tested on: DMS 273 small cell lung
EKVX NSCLC = tested on: EKVX NSCLC
HCC-2998 colon = tested on: HCC-2998 colon
HCT-116 colon = tested on: HCT-116 colon
HCT-15 colon = tested on: HCT-15 colon
HOP-18 NSCLC = tested on: HOP-18 NSCLC
HOP-92 NSCLC = tested on: HOP-92 NSCLC
HT29 colon = tested on: HT29 colon
IGROV1 ovarian = tested on: IGROV1 ovarian
K-562 leukemia = tested on: K-562 leukemia
KM12 colon = tested on: KM12 colon
KM20L2 colon = tested on: KM20L2 colon
LXFL 529 NSCLC = tested on: LXFL 529 NSCLC
M14 melanoma = tested on: M14 melanoma
M19-MEL melanoma = tested on: M19-MEL melanoma
MALME-3M melanoma = tested on: MALME-3M melanoma
MOLT-4 leukemia = tested on: MOLT-4 leukemia
NCI-H23 lung = tested on: NCI-H23 lung
NCI-H460 lung = tested on: NCI-H460 lung
NCI-H522 lung = tested on: NCI-H522 lung
OVCAR-3 ovarian = tested on: OVCAR-3 ovarian
OVCAR-4 ovarian = tested on: OVCAR-4 ovarian
OVCAR-5 ovarian = tested on: OVCAR-5 ovarian
OVCAR-8 ovarian = tested on: OVCAR-8 ovarian
RPMI-8226 leukemia = tested on: RPMI-8226 leukemia
RXF 393 renal = tested on: RXF 393 renal
SF-295 CNS = tested on: SF-295 CNS
SF-539 CNS = tested on: SF-539 CNS
SK-MEL-2 melanoma = tested on: SK-MEL-2 melanoma
SK-MEL-28 melanoma = tested on: SK-MEL-28 melanoma
SK-MEL-5 melanoma = tested on: SK-MEL-5 melanoma
SK-OV-3 ovarian = tested on: SK-OV-3 ovarian
SN12C renal = tested on: SN12C renal
SNB-19 CNS = tested on: SNB-19 CNS
SNB-75 CNS = tested on: SNB-75 CNS
SNB-78 CNS = tested on: SNB-78 CNS
SR leukemia = tested on: SR leukemia
SW-620 colon = tested on: SW-620 colon
TK-10 renal = tested on: TK-10 renal
U251 CNS = tested on: U251 CNS
UACC-257 melanoma = tested on: UACC-257 melanoma
UACC-62 melanoma = tested on: UACC-62 melanoma
UO-31 renal = tested on: UO-31 renal
XF 498 CNS = tested on: XF 498 CNS
CCRF-CEM leukemia = tested on: CCRF-CEM leukemia
HL-60(TB) leukemia = tested on: HL-60(TB) leukemia
HOP-62 NSCLC = tested on: HOP-62 NSCLC
LOX IMVI melanoma = tested on: LOX IMVI melanoma
RXF-631 renal = tested on: RXF-631 renal

Measured: TGI

O=C(/C(=N/Nc1ccccc1)c1ccc([N+](=O)[O-])cc1)c1ccc([N+](=O)[O-])cc1
not listed: CCRF-CEM leukemia | HL-60(TB) leukemia | HOP-62 NSCLC | LOX IMVI melanoma | RXF-631 renal
> 100 µM: all other assays above

O=C(NC(=O)c1cn(CCN2CCN(C(=O)NCCCCCCNC(=O)N3CCN(CCn4cc(C(=O)NC(=O)OCc5ccccc5)c(=O)[nH]c4=O)CC3)CC2)c(=O)[nH]c1=O)OCc1ccccc1
not listed: HCC-2998 colon | KM12 colon | LXFL 529 NSCLC | NCI-H522 lung | SK-MEL-2 melanoma | SR leukemia | XF 498 CNS
> 100 µM: all other assays above
